Values of other authors as cited in paper PMC4291223, “Inhibitors of CLK Protein Kinases Suppress Cell Growth and Induce Apoptosis by Modulating Pre-mRNA Splicing” (PLoS ONE, 2015).

Tested on: CLK1 and CLK4
Design: method as in PMID 15010457
Details: cited from earlier work

CCN1/C(=C/C(C)=O)Sc2ccc(OC)cc21 [TG003]
CLK selectivity: selectively inhibits CLK1 and CLK4
